“Also recorded” adds a separate entry of the source.
Experiments:
[1] = test system: MRT cells (ATRT cells); experiment: Cell migration assay (scrape); type: cell-based, human; details: 100 μM BAPN, 48 h
Description: Cell migration assay: Cells were grown overnight, after which the medium was changed and supplemented with 100 μM BAPN. After 48 hours, a scrape was made through the confluent monolayers with a plastic 1 ml pipette tip. Treated and control cells were then photographed at identical time points (24 and 48 hours).

[2] = test system: ATRT Xn cells (MRT cells); experiment: MTS cell viability assay on MRT/ATRT Xn cells; type: cell-based, human; details: 100 μM BAPN, 48 h
Description: (§1) MTS—cell viability assay: 5×10^3 cells were plated in triplicates and grown in 96-well plates over-night. The following day the medium was changed and supplemented with various concentrations of BAPN and the cells were further incubated for 48 h. Cell proliferation was measured using CellTiter 96 Aqueous One Solution Cell Proliferation Assay (Promega) according to the manufacturer's instructions. Briefly, the cells were incubated with the MTS solution for 3 hours at 37° C. and absorbance at 492 nm was determined using a microplate reader. Three independent experiments were carried out.

[3] = test system: Wilms' tumor (WT) Xn cells; experiment: MTS cell viability assay on Wilms' tumor Xn cells; type: cell-based, human; details: Wilms' tumor Xn cells serially propagated in mice
Description: as §1

[4] = molecular target: T1, LOX (lysyl oxidase) in ATRT cells (Homo sapiens, UniProt P28300); experiment: LOX activity assay (Amplex Red fluorescence); type: biochemical; details: 100 μM BAPN
T1 construct: endogenous in cells
T1 sequence (P28300 169-417): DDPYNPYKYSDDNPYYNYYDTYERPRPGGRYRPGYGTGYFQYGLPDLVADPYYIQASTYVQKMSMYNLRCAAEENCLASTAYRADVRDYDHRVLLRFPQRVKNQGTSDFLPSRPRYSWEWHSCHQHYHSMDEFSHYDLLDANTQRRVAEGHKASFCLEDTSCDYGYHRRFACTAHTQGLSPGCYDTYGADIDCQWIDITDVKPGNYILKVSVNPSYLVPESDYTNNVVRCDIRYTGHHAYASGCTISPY
Description: LOX Activity Assays: The LOX enzyme activity was measured using the Amplex Red fluorescence assay (AAA Bioquest, 15255), as previously described (15843371). The assay reaction mixture consisted of 50 mM sodium borate (pH 8.2), 1.2 M urea, 50 µM Amplex Red, 0.1 units/ml horseradish peroxidase, and 10 mM 1,5-diaminopentane (cadaverine) substrate. The protein samples were added to the reaction mix, in the presence or absence of 100 μM BAPN, which was then incubated at 37° C. for 30 minutes. The fluorescent product was measured at 590 nm using an […] microplate reader.

[5] = test system: MRT cells (ATRT cells); experiment: Morphology of MRT/ATRT cells after BAPN treatment; type: cell-based, human
[6] = intermediate Xn passage (P10) MRT cells

## N#CCCN [BAPN, β-Aminopropionitrile]
[1]; P2 cells
  ATRT cell migration capacity compared to un-treated cells: significant inhibited
[1]; [6]
  MRT cell migration capacity compared to un-treated cells: significant inhibited; also recorded: significantly inhibited
[2]; P2 Xn cells
  proliferation in comparison to UT cells (MTS cell viability): 47%
[2]; intermediate Xn passage (P10) cells, three different experiments
  proliferation (MTS cell viability): significantly reduced proliferation
[3]
  effect on WT cell proliferation: no effect on WT cell proliferation
[4]
  LOX activity (in words): significantly inhibited LOX activity
[4]; P3 cells
  inhibition of LOX activity: 81%
[4]; P10 cells
  inhibition of LOX activity: 63%
[5]; P2 cells
  morphological changes on ATRT cells: nuclear condensation and cell swallowing
[5]; [6]
  morphological changes on MRT cells: nuclear condensation and cell swallowing

— patent US10883994B2, “Identification of cancer stem cells markers and use of same for diagnosis and treatment” (Tel HaShomer Medical Research Infrastructure and Services …, priority 2014, dated 2021)
